How the values were obtained:
[1] = target: T1, GDP-loaded KRAS (1-169) G12C, C51S, C80L, C118S (Homo sapiens, UniProt P01116, C118S/C51S/C80L/G12C); assay: Mass Spectrometry Reactivity Assay (MSRA): covalent adduct of compound and KRAS G12C, Percent Modification; type: binding; details: for MSRA (% modification) 5.0 μM 0.017 hr / MSRA (% modification) 5.0 μM 0.25 hr: 5.0 μM compound
T1 construct: GDP-loaded KRAS (1-169) G12C, C51S, C80L, C118S
Protocol: Mass Spectrometry Reactivity Assay (MSRA)
Compounds presented in the present invention covalently bind to KRAS G12C using MSRA to detect a covalent adduct of the exemplary compound and KRAS G12C.
GDP-loaded KRAS (1-169) G12C, C51S, C80L, C118S were diluted in the protein assay buffer 25 mM Hepes pH7.5, 200 mM NaCl, 5% glycerol to concentration of 5 μM and 20 μl of protein was transferred into 96-well plate. Initial compound stocks were generated at concentrations 100-fold higher that their desired assay concentrations. See K-Ras(G12C) inhibitors allosterically control GTP affinity and effector interactions; Ostrem J M, Peters U, Sos M L, Wells J A, Shokat K M; Nature. 2013, Nov. 28; 503(7477):548-51.
Exemplary compounds dissolved in DMSO were diluted 100-fold into solution containing 20 μl of 5 μM KRAS protein in the 96-well plate to initiate the reaction. Mosquito (TPP Lab tech) liquid handling robot was used to add compounds to protein solution. Typical final concentration of the compounds was 5 μM or 10 μM. The plates were placed on a shaker for 1 min at RT, sealed and incubated at room temperature for specified time period. 5 μl of reaction mix was added to 10 μl of 0.2% formic acid stop solution and mixed well. Typical end points were 1, 15, 30, and 60 min.
Data were collected using Waters Acquity H-class UPLC system/Xevo G2-XS TOF mass spectrometer. The protein was injected in their liquid phase onto a Bruker Microtrap protein column TR1/15109/03. The following buffers were used to set LC gradient: Buffer A: 0.2% formic acid H2O; B: 0.2% formic acid CAN. The protein was eluted from the column using the following LC Gradient: 0-0.4 min, 10% B to 30% B; 0.4 min-2.4 min, to 90% B, 2.5 min, 10% B, 3 min, 10% B. Initial data analysis was performed using MaxEnt software right after data acquisition.
The standard auto processing function was used to define percentage of unmodified and modified KRAS protein using MexEnt software right after data acquisition. The highest peak was defined as 100% while smaller peak as assigned the number defined by autoprocessing function. The percent of modification corresponding to modified with exemplary compound and unmodified KRAS GDP-loaded KRAS (1-169) G12C, C51S, C80L, C118S were exported to Xcel data analysis software.
The percent of modified protein at the defined concentration of exemplary compound was calculated using the following formula: % mod=Num of modified peak/Sum of modified+unmodified. The resultant value defined as Percent Modification (PM) and an increase in PM reflects that the specific compound is better than other compounds at specified compound concentration at a given time point.

KRAS G12C = KRAS G12C (Homo sapiens, UniProt P01116, G12C); assay: Cell Activity Assay: accumulation of GDP-bound KRAS G12C in MIAPaCa-2 cells (Raf-1 RBD capture, MSD readout); type: cell-based; design: endogenous in cells; host or cells: MIAPaCa-2; details: 6 hours, assay limit is 30.00
Protocol: Compounds presented in the present invention lead to the accumulation of the GDP bound Ras upon treatment of human cancer cell line.
The accumulation of the GDP-bound KRAS G12C in cellular environment was measured based on the principle that KRAS G12C only binds to its downstream kinase; Raf-1 (MAP Kinase Kinase Kinase), when in its active-GTP bound state. In this state, Ras binded to a domain of Raf-1 kinase referred to as the Ras Binding Domain (RBD).
MIAPaCa-2 cells were grown in RPMI 1640 medium (Gibco 11875) supplemented with 10% fetal bovine serum and 1% penicillin/streptomycin. Cells were seeded in 96-well tissue culture plates at a density of 30,000 cells/well and allowed to attach for 16-24 hours. Test compounds were prepared as a 10 mM stock in DMSO and serially diluted in 100% DMSO using a 3-fold dilution scheme. An intermediate 5× concentrated plate in complete growth medium was made and 25 μl/well was added to the 100 μl of cells for a final concentration of 0.3% DMSO. Each concentration of exemplary compound was tested in duplicate. The negative control wells were cells with control inhibitor at 10 μM, and the positive control wells were cells without drugs, DMSO only. Plates were incubated for 6 hours at 37° C., 5% CO2. Following treatment, cells were washed 3× with ice-cold PBS and 115 μl/well ice-cold 1× Assay/Lysis. Buffer with protease inhibitors was added (25 mM HEPES, pH 7.5, 150 mM NaCl, 1% NP-40, 10 mM MgCl2, 1 mM EDTA, 2% Glycerol). Following lysis samples were frozen at −80° C.
Raf-1 RBD (LJIC-1988A1) was diluted to 100 ng/well in PBS and 5 μl/well was spot coated onto MSD high bind SECTOR plates (L15XB). Plates were incubated at room temperature for 1 hour on an orbital shaker. Plates were washed with PBS/0.05% Tween-20 and 50 μl/well of thawed lysate samples were added, followed by 50 μl of 1% MSD Blocker A in PBS/0.05 Tween-20 (R93BA). Plates were incubated for 1 hour on an orbital shaker and washed with PBS/0.05% Tween-20. 25 μl/well of Anti-pan-Ras Antibody (Cell Biolabs 244003) diluted 1:3000 was added in 1% MSD Blocker A solution and plates were incubated for 1 hour on an orbital shaker and washed with PBS/0.05% Tween-20. SULFO-TAG goat anti-mouse secondary antibody (MSD R32AC) was diluted 1:500 in MSD Blocker A solution and added at 25 μL/well. Plates were incubated for 1 hour on an orbital shaker and washed with PBS/0.05% Tween-20. 150 μl/well of Read Buffer T (MSD R92TC) diluted 1:3 in H2O was added and plates were read on a Meso Scale Discovery Sector Imager S600.
KRAS signal was normalized to maximum inhibition and DMSO control values, and IC50 values were generated using a 4 parameter fit of the dose response curve. The decrease in IC50 reflects that the exemplary compound lead to a higher level of accumulation of GDP-bound KRAS G12C than another exemplary compounds at specific timepoint of treatment of cancer cell line.

MSRA (% modification) 5.0 μM 0.017 hr [1] | IC50 (KRAS G12C) | MSRA (% modification) 10 μM 0.25 hr ([1]; 10 μM compound) | MSRA (% modification) 5.0 μM 0.25 hr [1] | MSRA (% modification) 10 μM 0.50 hr ([1]; 10 μM compound, 0.50 hr) | Structure (SMILES)
76% | 0.014 µM | – | – | – | C#CCCN1C[C@@H](OC)[C@H](Oc2nc(N3CCN(C(=O)C=C)CC3)c3cc(Cl)nc(Oc4c(Cl)c(F)cc5[nH]ncc45)c3n2)C1 [Example 39G, 1-[4-(2-{[(3R,4R)-1-(but-3-yn-1-yl)-4-methoxypyrrolidin-3-yl]oxy}-6-chloro-8-[(5-chloro-6-fluoro-1H-indazol-4-yl)oxy]pyrido[3,4-d]pyrimidin-4-yl)piperazin-1-yl]prop-2-en-1-one]
– | 0.537 µM | 56% | – | – | C=CC(=O)N1CCN(c2ncnc3c(Oc4c(Cl)c(F)cc5[nH]ncc45)nc(Cl)cc23)[C@@H](CO)C1 [Example 38A, 1-[(3R)-4-{6-chloro-8-[(5-chloro-6-fluoro-1H-indazol-4-yl)oxy]pyrido[3,4-d]pyrimidin-4-yl}-3-(hydroxymethyl)piperazin-1-yl]prop-2-en-1-one]
– | 0.054 µM | 79% | – | – | C=CC(=O)N1CCN(c2nc(OC[C@@H]3C[C@H](F)CN3C)nc3c(Oc4c(C)c(Cl)cc5[nH]ncc45)nc(Cl)cc23)CC1 [Example 17G, 1-[4-(6-chloro-8-[(6-chloro-5-methyl-1H-indazol-4-yl)oxy]-2-{[(2S,4S)-4-fluoro-1-methylpyrrolidin-2-yl]methoxy}pyrido[3,4-d]pyrimidin-4-yl)piperazin-1-yl]prop-2-en-1-one]
60% | 0.037 µM | – | – | – | C=CC(=O)N1CCN(c2nc(O[C@@H]3CN(C)C[C@H]3CC)nc3c(Oc4c(Cl)c(F)cc5[nH]ncc45)nc(Cl)cc23)CC1 (racemic) [Example 28G, rac-1-[4-(6-chloro-8-[(5-chloro-6-fluoro-1H-indazol-4-yl)oxy]-2-{[(3S,4R)-4-ethyl-1-methylpyrrolidin-3-yl]oxy}pyrido[3,4-d]pyrimidin-4-yl)piperazin-1-yl]prop-2-en-1-one]
– | 0.056 µM | 81% | 83% | 83% | C=CC(=O)N1CCN(c2nc(OC[C@@H]3CCCN3C)nc3c(Oc4c(C)c(Cl)cc5[nH]ncc45)cccc23)CC1 [Example 22E, 1-[4-(8-[(6-chloro-5-methyl-1H-indazol-4-yl)oxy]-2-{[(2S)-1-methylpyrrolidin-2-yl]methoxy}quinazolin-4-yl)piperazin-1-yl]prop-2-en-1-one]
67% | 0.029 µM | – | – | – | C=CC(=O)N1CCN(c2nc(O[C@@H]3CN(C)C[C@H]3OCC)nc3c(Oc4c(Cl)c(F)cc5[nH]ncc45)nc(Cl)cc23)CC1 [Example 27G, 1-[4-(6-chloro-8-[(5-chloro-6-fluoro-1H-indazol-4-yl)oxy]-2-{[(3R,4R)-4-ethoxy-1-methylpyrrolidin-3-yl]oxy}pyrido[3,4-d]pyrimidin-4-yl)piperazin-1-yl]prop-2-en-1-one]
– | 0.12 µM | – | 78% | – | C=CC(=O)N1CCN(c2nc(OCC3(F)CCN(C)CC3)nc3c(Oc4c(Cl)c(F)cc5[nH]ncc45)nccc23)CC1 [Example 12I, 1-(4-{8-[(5-chloro-6-fluoro-1H-indazol-4-yl)oxy]-2-[(4-fluoro-1-methyl-piperidin-4-yl)methoxy]pyrido [3,4-d]pyrimidin-4-yl}piperazin-1-yl)prop-2-en-1-one]
– | 0.082 µM | 81% | 52% | – | C=CC(=O)N1CCN(c2nc(OC[C@]3(F)CCN(C)C3)nc3c(Oc4c(Cl)c(F)cc5[nH]ncc45)nccc23)CC1 [Example 14H, 1-[4-(8-[(5-chloro-6-fluoro-1H-indazol-4-yl)oxy]-2-{[(3S)-3-fluoro-1-methylpyrrolidin-3-yl]methoxy}pyrido[3,4-d]pyrimidin-4-yl)piperazin-1-yl]prop-2-en-1-one]
51% | 0.038 µM | – | – | – | C=CC(=O)N1CCN(c2nc(O[C@@H]3CN(C)C[C@H]3OC)nc3c(Oc4c(Cl)c(F)cc5[nH]ncc45)cccc23)CC1 [Example 01L, 1-[4-(8-[(5-chloro-6-fluoro-1H-indazol-4-yl)oxy]-2-{[(3R,4R)-4-methoxy-1-methylpyrrolidin-3-yl]oxy}quinazolin-4-yl)piperazin-1-yl]prop-2-en-1-one]
– | 4.89 µM | 21% | – | – | C=CC(=O)N1CCN(c2nc(O[C@@H]3CCC[C@H]3N(C)C)nc3c(Oc4c(C)ccc5[nH]ncc45)nccc23)CC1 [Example 11B, 1-[4-(2-{[(1R,2R)-2-(dimethylamino)cyclopentyl]oxy}-8-[(5-methyl-1H-indazol-4-yl)oxy]pyrido[3,4-d]pyrimidin-4-yl)piperazin-1-yl]prop-2-en-1-one]
– | 0.155 µM | 72% | – | – | C=CC(=O)N1CCN(c2nc(OC[C@@H]3CCCN3C)nc3c(Oc4c(C)ccc5[nH]ncc45)nc(Cl)cc23)CC1 [Example 03G, 1-[4-(6-chloro-8-[(5-methyl-1H-indazol-4-yl)oxy]-2-{[(2S)-1-methylpyrrolidin-2-yl]methoxy}pyrido[3,4-d]pyrimidin-4-yl)piperazin-1-yl]prop-2-en-1-one]
15% | 0.059 µM | – | – | – | C=CC(=O)N1CCN(c2nc(O[C@@H]3CN(C)CC[C@H]3C)nc3c(Oc4c(Cl)c(F)cc5[nH]ncc45)nccc23)CC1 (racemic) [Example 53I, rac-1-[4-(8-[(5-chloro-6-fluoro-1H-indazol-4-yl)oxy]-2-{[(3S,4R)-1,4-dimethyl-piperidin-3-yl]oxy}pyrido [3,4-d]pyrimidin-4-yl)piperazin-1-yl]prop-2-en-1-one]
54% | 0.019 µM | – | – | – | C#CCN1C[C@@H](OC)[C@H](Oc2nc(N3CCN(C(=O)C=C)CC3)c3ccnc(Oc4c(Cl)c(F)cc5[nH]ncc45)c3n2)C1 [Example 43I, 1-[4-(8-[(5-chloro-6-fluoro-1H-indazol-4-yl)oxy]-2-{[(3R,4R)-4-methoxy-1-(prop-2-yn-1-yl)pyrrolidin-3-yl]oxy}pyrido [3,4-d]pyrimidin-4-yl)piperazin-1-yl]prop-2-en-1-one]
